Experimental data from ChEMBL document CHEMBL1649073, “Design and optimization of benzimidazole-containing transient receptor potential melastatin 8 (TRPM8) antagonists” (J Med Chem, 2011).

How the values were obtained:
[1] = Cmax in rat at 10 mg/kg, po; type: ADME, organism-based; design: dose 10 mg/kg, route oral; conditions: in vivo
Rattus norvegicus = test: Volume of distribution at steady state in rat at 10 mg/kg, po; type: ADME, organism-based; design: dose 10 mg/kg, route oral; conditions: in vivo
[2] = Oral bioavailability in rat at 10 mg/kg; type: ADME, organism-based; conditions: in vivo
[3] = Drug level in rat plasma at 3 mg/kg, po after 150 mins; type: ADME, organism-based; design: dose 3 mg/kg, route oral; conditions: read-out: Drug uptake
[4] = Drug level in rat plasma at 5.6 mg/kg, po after 150 mins; type: ADME, organism-based; design: dose 5.6 mg/kg, route oral; conditions: read-out: Drug uptake
[5] = Drug level in rat plasma at 10 mg/kg, po after 150 mins; type: ADME, organism-based; design: dose 10 mg/kg, route oral; conditions: read-out: Drug uptake
[6] = Drug level in rat brain at 3 mg/kg, po after 150 mins; type: ADME, organism-based; design: dose 3 mg/kg, route oral; conditions: read-out: Drug uptake
[7] = Drug level in rat brain at 5.6 mg/kg, po after 150 mins; type: ADME, organism-based; design: dose 5.6 mg/kg, route oral; conditions: read-out: Drug uptake
[8] = Drug level in rat brain at 10 mg/kg, po after 150 mins; type: ADME, organism-based; design: dose 10 mg/kg, route oral; conditions: read-out: Drug uptake
[9] = Plasma concentration in Sprague-Dawley rat at 1 to 30 mg/kg, po after 4 hrs; type: ADME, organism-based; design: dose 1-30 mg/kg, route oral
[10] = Volume of distribution at steady state in rat at 2 mg/kg, iv; type: ADME, organism-based; design: dose 2 mg/kg, route intravenous; conditions: in vivo, read-out: Vdss
[11] = Volume of distribution at steady state in dog at 2 mg/kg, iv; type: ADME, organism-based, Canis lupus familiaris; design: dose 2 mg/kg, route intravenous; conditions: in vivo, read-out: Vdss
[12] = AUC in rat at 10 mg/kg, po; type: ADME, organism-based; design: dose 10 mg/kg, route oral; conditions: plasma
[13] = Plasma concentration in guinea pig at 10 mg/kg, iv after 5 mins; type: ADME, organism-based, Cavia porcellus; design: dose 10 mg/kg, route intravenous
Canis familiaris [14] = test: AUC in dog at 10 mg/kg, po; conditions: in vivo
[15] = Cmax in dog at 10 mg/kg, po; conditions: in vivo
Canis familiaris [16] = test: Oral bioavailability in dog at 10 mg/kg; conditions: in vivo

| Structure (SMILES) | Cmax [1] [ng/mL] | Vdss (Rattus norvegicus) [L/kg] | bioavailability [2] [%] | concentration at […] [3] [ng/mL] | concentration at […] [4] [ng/mL] | concentration at […] [5] [ng/mL] | concentration at […] [6] [ng/g] | concentration at […] [7] [ng/g] | concentration at […] [8] [ng/g] | concentration at 4 h [9] [ng/mL] | Vd [10] [L/kg] | Vd [11] [L/kg] | AUC [12] [ng·h/mL] | concentration at 5 min [13] [ng/mL] | AUC (Canis familiaris [14]) [ng·h/mL] | Cmax [15] [ng/mL] | F (Canis familiaris [16]) [%] |
| --- | --- | --- | --- | --- | --- | --- | --- | --- | --- | --- | --- | --- | --- | --- | --- | --- | --- |
| FC(F)(F)c1ccccc1-c1ccc2nc(C3=NOC4(CCCCC4)C3)[nH]c2c1 | 230 | 13.6 |  |  |  |  |  |  |  |  |  |  |  |  |  |  |  |
| FC(F)(F)c1ccccc1-c1cc(C(F)(F)F)c2[nH]c(C3=NOC4(CCCCC4)C3)nc2c1 | 1260 |  | 96 | 295 | 662 | 1040 | 175 | 414 | 638 | 254 | 2.92 | 4.43 | 12300 | 18200 | 5252 | 1640 | 45 |
